# Laboratory results: patent publication US11771662B2, “Analgesic formulation for control of pain in dogs” (Kansas State University Research Foundation, priority 2017, dated 2023)
# How the values were obtained:
# healthy dogs = assay: Sedation assessment after oral methadone alone or with oral fluconazole (Example I); type: in vivo, dog; conditions: methadone alone 1 mg/kg PO
# [1] = Plasma methadone, naltrexone and naltrexone metabolites, multiple oral doses (Example III); type: in vivo, dog; conditions: oral methadone/fluconazole/naltrexone formulation, both groups; throughout dosing and at least 12 hours after the last dose
# Description: Twelve healthy Beagle dogs were divided into two groups of 6 each in a parallel study design. […] Group 1 simulated a patient dropped off the night before surgery, while Group 2 simulated a patient dropped off in the morning for same day early afternoon surgery. Rectal temperature was monitored as a marker of central opioid effects throughout the study and von Frey thresholds were obtained to assess the antinociceptive effects.
# [2] = Plasma methadone, fluconazole, naltrexone and naltrexone metabolite concentrations (Example IV)
# Text: Anesthesia was monitored by licensed veterinary technicians.
# in vivo = assay: in vivo
# Description: Five healthy mixed breed, purpose bred dogs were included in this study. […] Blood was obtained immediately prior to the 4 hour dose (i.e. a trough sample).
# [3] = humans; cited from earlier work
# [4] = test system: dogs undergoing ovariohysterectomy; assay: Adverse effects in ovariohysterectomy clinical trial (Example IV); conditions: injection group, 0.5 mg/kg SC q 4 h
# [5] = test system: dogs undergoing ovariohysterectomy; assay: Pre-anesthetic sedation in ovariohysterectomy clinical trial (Example IV); conditions: 0.5 mg/kg SC q 4 h; with acepromazine 0.05 mg/kg SC
# [6] = test system: dogs undergoing ovariohysterectomy; assay: Ease of IV catheter placement in ovariohysterectomy clinical trial (Example IV); conditions: 0.5 mg/kg SC q 4 h; with acepromazine 0.05 mg/kg SC
# [7] = test system: dogs undergoing ovariohysterectomy; assay: Sedation scores at each time point in ovariohysterectomy clinical trial (Example IV); conditions: 0.5 mg/kg SC q 4 h
compound,measurement,setting,value
CCC(=O)C(CC(C)N(C)C)(c1ccccc1)c1ccccc1 (racemic) [methadone],Sedation,healthy dogs,not noted in any of the dogs at any time point
same,Mean plasma concentration of methadone,[1],exceeded 10 ng/mL
same,Plasma methadone concentrations median (range),"[2]; injectable methadone 0.5 mg/kg SC q 4 h, Day 1 4:00 PM",14.4 (5.4-32.9)^1
same,Plasma methadone concentrations median (range),"[2]; injectable methadone 0.5 mg/kg SC q 4 h, Day 1 8:00 PM",22.4 (14.8-47.7)
same,Plasma methadone concentrations median (range),"[2]; injectable methadone 0.5 mg/kg SC q 4 h, Day 2 5:00 PM","2.0 (0-10)^1,2"
same,Plasma methadone concentrations median (range),"[2]; oral methadone/fluconazole/naltrexone formulation 0.5 mg/kg (methadone) PO q 12 h, Day 1 4:00 PM",20.6 (2.6-30.3)^2
same,Plasma methadone concentrations median (range),"[2]; oral methadone/fluconazole/naltrexone formulation 0.5 mg/kg (methadone) PO q 12 h, Day 1 8:00 PM",17.6 (2.0-29.8)^1
same,Plasma methadone concentrations median (range),"[2]; oral methadone/fluconazole/naltrexone formulation 0.5 mg/kg (methadone) PO q 12 h, Day 2 5:00 PM","14.1 (3.6-41.7)^2,3"
same,Plasma methadone concentrations median (range),"[2]; oral methadone/fluconazole/naltrexone formulation 1 mg/kg (methadone) PO q 12 h, Day 1 4:00 PM","36.2 (3.2-67.7)^1,2"
same,Plasma methadone concentrations median (range),"[2]; oral methadone/fluconazole/naltrexone formulation 1 mg/kg (methadone) PO q 12 h, Day 1 8:00 PM",27.7 (2.1-54.8)^1
same,Plasma methadone concentrations median (range),"[2]; oral methadone/fluconazole/naltrexone formulation 1 mg/kg (methadone) PO q 12 h, Day 2 5:00 PM","46.7 (1.4-98.5)^1,3"
same,Persistence of methadone plasma concentrations compared to the standard formulation of methadone,in vivo; injectable opioid formulation containing an azole antifungal,persisted longer
same,Time to which methadone plasma concentrations persisted,"in vivo; injectable opioid formulation containing an azole antifungal, SC at 0 and 4 h, one dog",at least 32 hours
same,concentration at 32 h,"in vivo; mixed breed, dog, in vivo, sc",4 ng/mL
same,Increase in methadone drug exposure when fluconazole is administered with methadone,[3],30-35%
same,Perioperative nausea or vomiting (dogs affected/dogs in group),[4],2/13
same,Pre-anesthetic sedation: A. None - no apparent effect (number of dogs),[5],0
same,"Pre-anesthetic sedation: B. Mild - drowsy, but still active (number of dogs)",[5],7
same,"Pre-anesthetic sedation: C. Moderate - drowsy, glazed eyes, but still able to walk without assistance (number of dogs)",[5],3
same,"Pre-anesthetic sedation: D. Heavy - Very drowsy, unable to walk or requires assistance to walk (number of dogs)",[5],3
same,IV Catheter placement: A. Unable to restrain the dog (number of dogs),[6],0
same,"IV Catheter placement: B. The dog was restrained, but was difficult (number of dogs)",[6],2
same,IV Catheter placement: C. The dog was restrained with little effort (number of dogs),[6],8
same,IV Catheter placement: D. The dog was unable to sit sternal and had to be supported (number of dogs),[6],3
same,Sedation Score Moderate (number of dogs),[7]; Day 0 5:00 PM,0
same,Sedation Score None (number of dogs),[7]; Day 0 5:00 PM,13
same,Sedation Score Profound (number of dogs),[7]; Day 0 5:00 PM,0
same,Sedation Score Slight (number of dogs),[7]; Day 0 5:00 PM,0
same,Sedation Score Moderate (number of dogs),[7]; Day 1 1:00 PM,3
same,Sedation Score None (number of dogs),[7]; Day 1 1:00 PM,1
same,Sedation Score Profound (number of dogs),[7]; Day 1 1:00 PM,3
same,Sedation Score Slight (number of dogs),[7]; Day 1 1:00 PM,6
same,Sedation Score Moderate (number of dogs),[7]; Day 1 4:00 PM,0
same,Sedation Score None (number of dogs),[7]; Day 1 4:00 PM,5
same,Sedation Score Profound (number of dogs),[7]; Day 1 4:00 PM,0
same,Sedation Score Slight (number of dogs),[7]; Day 1 4:00 PM,8
same,Sedation Score Moderate (number of dogs),[7]; Day 1 6:00 PM,1
same,Sedation Score None (number of dogs),[7]; Day 1 6:00 PM,4
same,Sedation Score Profound (number of dogs),[7]; Day 1 6:00 PM,0
same,Sedation Score Slight (number of dogs),[7]; Day 1 6:00 PM,8
same,Sedation Score Moderate (number of dogs),[7]; Day 1 8:00 PM,0
same,Sedation Score None (number of dogs),[7]; Day 1 8:00 PM,9
same,Sedation Score Profound (number of dogs),[7]; Day 1 8:00 PM,0
same,Sedation Score Slight (number of dogs),[7]; Day 1 8:00 PM,6
same,Sedation Score Moderate (number of dogs),[7]; Day 1 12:00 PM,1
same,Sedation Score None (number of dogs),[7]; Day 1 12:00 PM,2
same,Sedation Score Profound (number of dogs),[7]; Day 1 12:00 PM,0
same,Sedation Score Slight (number of dogs),[7]; Day 1 12:00 PM,10
same,Sedation Score Moderate (number of dogs),[7]; Day 2 5:00 PM,0
same,Sedation Score None (number of dogs),[7]; Day 2 5:00 PM,13
same,Sedation Score Profound (number of dogs),[7]; Day 2 5:00 PM,0
same,Sedation Score Slight (number of dogs),[7]; Day 2 5:00 PM,0
same,Sedation Score Moderate (number of dogs),[7]; Day 2 6:30 AM,0
same,Sedation Score None (number of dogs),[7]; Day 2 6:30 AM,13
same,Sedation Score Profound (number of dogs),[7]; Day 2 6:30 AM,0
same,Sedation Score Slight (number of dogs),[7]; Day 2 6:30 AM,0
same,Sedation Score Moderate (number of dogs),[7]; Day 3 7:00 AM,0
